According to PMC5674823, “Cloning, expression and identification of KTX-Sp4, a selective Kv1.3 peptidic blocker from Scorpiops pococki” (Cell & Bioscience, 2017):
Bridge positions count the residues as written; N and C are the ends. Ends that are not written are not given here.

Tests used:
[1] = test system: voltage-gated potassium channels on DRG cells; assay: Whole-cell patch-clamp, voltage-gated K+ currents in acutely isolated DRG cells; type: cell-based, mouse; conditions: 1 μM peptide, +50 mV 400 ms pulse from -60 mV
Protocol: Mouse spinal columns were removed and placed in ice-cold HBSS; neurons were acutely dissociated and maintained as described. In brief, laminectomies were performed and bilateral DRG were dissected out. After removal of connective tissues, DRG were transferred to a 1 ml Ca^2+/Mg^2+-free HBSS containing 2 μl saturated NaHCO3, 0.35 mg L-cysteine and 20 U papain (Worthington, Lakewood, NJ, USA), and incubated at 37 °C for 10 min. The suspension of DRG was centrifuged, the supernatant was removed, 1 ml Ca^2+/Mg^2+-free HBSS containing 4 mg collagenase type II and 1.25 mg dispase type II (Worthington) was added and incubated at 37 °C for 10 min. After digestion, neurons were pelleted, suspended in neurobasal medium containing 2% B-27 supplement, 1% L-glutamine, 100 U/ml penicillin plus 100 μg/ml streptomycin, and 50 ng/ml nerve growth factor, plated on a 12 mm coverslip coated with poly-L-lysine (10 μg/ml) and cultured under a humidified atmosphere of 5% CO2/95% air at 37 °C for 18–24 h before use.
Whole-cell patch-clamp recordings were performed using an EPC 9 amplifier (HEKA Elektronik, Lambrecht/Pfalz, Germany) at room temperature (22–24 °C). Pipettes pulled from borosilicate glass (BF 150-86-10; Sutter Instrument Company, Novato, CA, USA) had resistances of 2–4 MΩ when filled with the internal solution. […]

[2] = biological target: T1, mKv1.1-AEHS/PSGN (Mus musculus, UniProt P16388, A352P/E353S/H355G/S357N); assay: Whole-cell patch-clamp, turret mutant Kv1.1-AEHS/PSGN expressed in HEK293T cells; type: cell-based; conditions: four Kv1.1 turret residues replaced by those of Kv1.3, mean ± SE of six experiments, SEM, read-out: IC50 on Kv1.1-AEHS/PGSN mutant channel
T1 construct: expressed in transfected cells; host or cells: HEK293T cells, pIRES2-EGFP vector
Protocol: (§1) Jurkat E6-1 T cells (ATCC TIB152) and HEK293T cells (ATCC ACS4500) were maintained in RPMI medium 1640 (Invitrogen, Carlsbad, CA, USA) and Dulbecco’s modified Eagle’s medium (DMEM) (Life Technologies, GrandIsland, NY, USA), supplemented with 10% fetal bovine serum (Life Technologies), 100 units/ml penicillin, 100 μg/ml streptomycin, respectively. Cells were cultured in a humidified incubator at 37 °C with 5% CO2. The cDNAs encoding mKv1.1, mKv1.1-AEHS/PSGN, hKv1.2 and mKv1.3 [18] were subcloned into the XhoI/BamHI sites of a bicistronic vector, pIRES2-EGFP (Clontech, USA), then transiently transfected into HEK293-T cells using Lipofectamine 2000 (Invitrogen) for electrophysiological experiments.
(§2) Whole-cell patch-clamp recordings were performed using an EPC 9 amplifier (HEKA Elektronik, Lambrecht/Pfalz, Germany) at room temperature (22–24 °C). Pipettes pulled from borosilicate glass (BF 150-86-10; Sutter Instrument Company, Novato, CA, USA) had resistances of 2–4 MΩ when filled with the internal solution. The internal pipette solution for recording Kv currents on DRG neurons contained: 120 mM potassium gluconate, 20 mM KCl, 10 mM EGTA, 10 mM HEPES, 5 mM Na2-ATP, 2 mM MgCl2, 1 mM CaCl2 (pH 7.3 withKOH). […]

[3] = test system: mKv1.1; assay: Whole-cell patch-clamp, Kv1.1 heterologously expressed in HEK293T cells; type: cell-based, mouse; conditions: 1 μM peptide
Protocol: as §1, §2

[4] = biological target: T2, mKv1.3 (Mus musculus, UniProt P16390); assay: Whole-cell patch-clamp, mKv1.3 heterologously expressed in HEK293T cells; type: cell-based
T2 construct: expressed in transfected cells; host or cells: HEK293T cells, pIRES2-EGFP vector
Protocol: as §1, §2

[5] = biological target: T3, endogenous Kv1.3 expressed by human Jurkat T cells (Homo sapiens, UniProt P22001); assay: Whole-cell patch-clamp, endogenous Kv1.3 currents in Jurkat T cells; type: cell-based
T3 construct: endogenous Kv1.3 expressed by human Jurkat T cells; endogenous in cells; host or cells: Jurkat E6-1 T cells (ATCC TIB152)
Protocol: as §1, §2

[6] = test system: hKv1.2; assay: Whole-cell patch-clamp, Kv1.2 heterologously expressed in HEK293T cells; type: cell-based, human; conditions: 1 μM peptide
Protocol: as §1, §2

T3 sequence (P22001 whole entry): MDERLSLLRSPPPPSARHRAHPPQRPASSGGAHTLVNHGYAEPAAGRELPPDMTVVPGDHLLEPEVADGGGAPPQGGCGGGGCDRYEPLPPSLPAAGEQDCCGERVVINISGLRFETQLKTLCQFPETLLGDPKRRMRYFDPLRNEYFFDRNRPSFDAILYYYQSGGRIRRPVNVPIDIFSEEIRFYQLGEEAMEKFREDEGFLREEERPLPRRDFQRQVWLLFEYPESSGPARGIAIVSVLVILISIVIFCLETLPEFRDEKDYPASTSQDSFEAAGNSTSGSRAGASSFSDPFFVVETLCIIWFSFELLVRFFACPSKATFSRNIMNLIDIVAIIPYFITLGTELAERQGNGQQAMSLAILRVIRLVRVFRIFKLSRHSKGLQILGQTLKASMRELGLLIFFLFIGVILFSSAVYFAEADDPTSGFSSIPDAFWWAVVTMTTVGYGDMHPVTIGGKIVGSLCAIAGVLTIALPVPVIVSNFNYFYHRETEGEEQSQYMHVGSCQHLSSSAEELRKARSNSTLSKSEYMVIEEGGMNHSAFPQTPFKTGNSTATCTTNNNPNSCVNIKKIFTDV
T2 sequence (P16390 whole entry): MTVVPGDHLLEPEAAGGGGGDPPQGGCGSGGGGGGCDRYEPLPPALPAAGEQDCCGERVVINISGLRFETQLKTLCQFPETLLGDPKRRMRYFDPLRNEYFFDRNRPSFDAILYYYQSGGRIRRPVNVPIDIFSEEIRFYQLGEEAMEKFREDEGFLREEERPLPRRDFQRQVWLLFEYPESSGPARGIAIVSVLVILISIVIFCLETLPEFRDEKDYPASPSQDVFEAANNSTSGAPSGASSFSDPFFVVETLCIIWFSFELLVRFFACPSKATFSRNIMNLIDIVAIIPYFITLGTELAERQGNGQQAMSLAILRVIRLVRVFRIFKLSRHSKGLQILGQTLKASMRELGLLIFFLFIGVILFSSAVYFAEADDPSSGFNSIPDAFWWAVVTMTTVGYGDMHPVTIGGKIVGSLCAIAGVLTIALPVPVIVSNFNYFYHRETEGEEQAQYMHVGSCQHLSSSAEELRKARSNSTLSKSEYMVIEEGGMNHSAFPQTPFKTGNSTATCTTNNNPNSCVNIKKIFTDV
T1 sequence (P16388 whole entry A352P/E353S/H355G/S357N): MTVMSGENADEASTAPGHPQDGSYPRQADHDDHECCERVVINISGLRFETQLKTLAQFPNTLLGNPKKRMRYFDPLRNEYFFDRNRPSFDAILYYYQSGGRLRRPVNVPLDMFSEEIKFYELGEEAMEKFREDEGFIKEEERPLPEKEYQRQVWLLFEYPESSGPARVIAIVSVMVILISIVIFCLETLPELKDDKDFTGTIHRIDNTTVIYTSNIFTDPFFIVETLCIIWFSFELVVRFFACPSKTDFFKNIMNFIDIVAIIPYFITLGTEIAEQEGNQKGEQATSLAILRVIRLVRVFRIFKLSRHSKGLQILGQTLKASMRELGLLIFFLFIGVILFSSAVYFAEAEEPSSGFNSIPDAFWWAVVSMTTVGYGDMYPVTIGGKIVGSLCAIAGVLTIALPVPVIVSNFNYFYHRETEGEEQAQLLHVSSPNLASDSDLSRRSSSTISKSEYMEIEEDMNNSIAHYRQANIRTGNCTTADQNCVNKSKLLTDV

Sequence: AFPSENPTGGCPLSDNVCSSYCKKNKFGNEGKCHGTICKCSIK (disulfide 11-33, 18-38, 22-40 (inferred)) [KTX-Sp4]
- Inhibitory effect on voltage-gated K+ currents on DRG cells [1]: no significant inhibitory effect
- IC50 [2]: 12.1 ± 4.08 nM
- Reduction of maximum current of Kv1.1 channel [3]: about 20.85%
- IC50 ([4]; HEK293T cells, steady-state current at end of depolarizing pulse, n = 10, read-out: IC50 on wild-type mKv1.3-mediated steady-state current): 24.7 ± 10.8 nM
- Blocking activity on Kv1.3, times weaker than that of J123 ([4]; comparison with J123): 31 times
- Reversibility of suppressive effect on Kv1.3 after washout ([5]; Jurkat T cells, bath application, washout): partially reversible
- IC50 ([5]; whole-cell patch-clamp, +50 mV 400 ms pulse from -60 mV, almost zero cytosolic Ca2+ pipette solution, Hill fit, n = 8, read-out: IC50 of inhibition of Kv1.3 current in Jurkat T cells): 235 ± 3.36 nM
- Reduction of maximum current of Kv1.2 channel [6]: ~7.23%
